Assay results published in patent publication US12569532B2, “Brain function regulating agent, and food or beverage product containing same” (NITTA GELATIN INC., priority 2019, dated 2026).
Where two headings read alike, the source gives them in different places. Where a SMILES comes first, the peptide text is derived from it. [ ]: non-standard residue; d: D form. Hyp = O=C(O)[C@@H]1C[C@@H](O)CN1

Legend:
[1] = system: cerebellar granule cells (CGC); details: Wistar, rat, 6 days
Method: (§1) 15 to 25-week-old male and female Wistar rats were provided by purchase from CREA Japan, Inc. Thereafter, the rats were reared under the following conditions: the temperature was 23±2° C., the relative humidity was 55±10%, the lighting cycle was 12 hours, the light period started at 7:00 and ended at 19:00, and the rats were fed with a solid feed (“CE-2” (trade name) manufactured by CREA Japan, Inc) and allowed to freely access drinking water. Under the same conditions as described above, the rats were mated to obtain 7-day-old rats. Further, 3 to 8-day-old Wistar rats were provided by purchase from CREA Japan, Inc.
(§2) The Wistar rats were reared to the age of 7 to 9 days under the above-described conditions, and cerebella were then excised from these rats, and dispersed by the below-described method using the dispersion solutions shown in Table 4 (liquids I to V). In this way, dispersions containing granule cells and other cerebral nerve cells (hereinafter, these cells are also referred to collectively as “cerebellar granule cells (CGC)”) from the cerebella. The cerebellar granule cells (CGC) are cerebral nerve cells. Thereafter, the CGC contained in the dispersions was cultured. […] The method for preparing the cerebellar granule cells (CGC) is as follows.
(§3) First, ten of the 7 to 9-day-old rats were decapitated, and cerebella were excised in the clean bench, and then formed into minced paste with a razor after removal of unnecessary tissues, blood vessels, chorionic membranes and the like. Liquid I was added to the paste to give a suspension, and the suspension was centrifuged at 1,000 rpm for 30 seconds to obtain a first separate liquid containing a supernatant and a cell group. The supernatant was removed from the first separate liquid, liquid II pre-warmed to 37° C. in a thermostatic bath was then added to the remaining cell group little by little, and the mixture was stirred, transferred into a 50 mL medium bottle, and further stirred at 37° C. for 15 minutes to perform tissue digestion with trypsin.
(§4) Next, liquid IV was added to the medium bottle to deactivate the trypsin, and the mixture was centrifuged at 1,000 rpm for 30 seconds to obtain a second separate liquid containing a supernatant and a cell group. The supernatant was removed from the second separate liquid, and a small amount of liquid III was then added to the remaining cell group with a Pasteur pipette to disperse the cell group. Thereafter, the mixture was left standing for 15 minutes to obtain a third separate liquid containing a supernatant and a cell group, and the supernatant was taken into liquid V. To the cell group remaining in the third separate liquid, a small amount of liquid III was added to redisperse the cell group. Thereafter, the mixture was left standing for 5 to 10 minutes to obtain a fourth separate liquid containing a supernatant and a cell group, and the supernatant was taken into liquid V containing the supernatant of the third separate liquid.
(§5) Liquid V containing the supernatant of the third separate liquid and the supernatant of the fourth separate liquid was centrifuged at 1,000 rpm for 5 minutes to obtain a fifth separate liquid containing a supernatant and a cell group. The supernatant was removed from the fifth separate liquid, a basal medium (BME: Basal Medium Eagle manufactured by Sigma-Aldrich Co. LLC) was then added to the remaining cell group, and the mixture was stirred to obtain a mixed liquid containing cerebellar granule cells (CGC) and BME. Thereafter, the mixed liquid was stained with a trypan Blue solution with a concentration of 0.4 mass %, and the number of the stained cells and the viability thereof were measured.

[2] = system: PC12 cells derived from a rat adrenal pheochromocytoma; details: PTL 2; cited from earlier work
[3] = system: cerebellar granule cells (CGC); assay: Evaluation Test 2: viability of primary-cultured CGC by MTT assay (differentiation promoting action); details: for Viability (%): KCl 15 mM, MTT day 7, percent of control sample with KCl 25 mM
Method: as §1, §2, §3, §4, §5

[4] = system: rats; details: when transferred into the cerebrospinal fluid, NPL 2; cited from earlier work
[5] = system: cerebellar granule cells (CGC); details: Wistar, rat, 6 days; remark: listed apart in the source
Method: Next, K+5 mM serum (+) BME was added to the mixed liquid in such a manner that the cell density of living cells was 1.2×10^5 cells/mL, and the mixture was suspended to obtain a culture sample. The culture sample was seeded at 0.766 mL per well in a 12-well plate pre-coated with poly-L-lysin (PLL) with a concentration of 50 μg/mL, and was cultured in an incubator environment of CO2 with a concentration of 5 vol % at 37° C.
On day 1 after the start of culture, to each well was added cytosine β-D-arabinofuranoside (AraC) to a final concentration of 10 μM for the purpose of suppressing growth of non-neuronal cells while maintaining only CGC. Further, in the below-described control sample, KCl was added to a final concentration of 25 mM. In other samples (samples containing the peptides or amino acids shown in Tables 5 to 7 below), KCl was added with an adjustment made to a final concentration of 15 mM.
Specifically, the percent ratio of the number of living cells in each sample to the number of living cells in the control sample having a KCl concentration of 25 mM was determined, and subjected to statistical processing to evaluate significance of the differentiation promoting action on CGC. […]

Row | Compound | Viability (%) ([1]; 10 μM) | Viability (%) ([1]; 100 μM) | Viability (%) ([1]; 1000 μM) | Viability (%) ([1]; 0.1 μM) | Viability (%) ([1]; 1 μM) | further results
1 | O=C1NCC(=O)N2CCC[C@@H]12 [C-GP] | 51.2 | 46.4 | 53.3 | – | – | –
2 | N[C@@H](CCC(=O)O)C(=O)N1C[C@H](O)C[C@H]1C(=O)O [EO] (H-Glu-[Hyp]-OH; N-terminus and C-terminus assumed) | 86.8 | 81.2 | 86.7 | 52.9 | 54.8 | –
3 | Gly-Pro-Ala | – | – | – | – | – | neurogenesis promoting action [2]: has a neurogenesis promoting action
4 | O=C1[C@@H]2C[C@@H](O)CN2C(=O)[C@@H]2CCCN12 [C-PO] | 73.2 | 70.6 | 68.4 | 55.7 | 58.4 | –
5 | IGF-1: listed in Table 5 only, not explained in the text | – | – | – | – | – | Viability (%) ([3]; 100 ng/mL added days 1 and 4): 67.1%
6 | O=C1NCC(=O)N2C[C@H](O)C[C@@H]12 [C-OG] | 54.2 | 50.1 | 62.7 | 57.8 | 63.2 | –
7 | O=C(O)CC[C@@H]1NC(=O)[C@@H]2C[C@@H](O)CN2C1=O [C-EO] | 64.8 | 65.0 | 69.3 | 51.3 | 52.0 | –
8 | O=C1N[C@@H](Cc2cnc[nH]2)C(=O)N2CCC[C@@H]12 [C-HP] | 65.1 | 63.9 | 69.2 | – | – | –
9 | O=C(O)[C@@H]1C[C@@H](O)CN1C(=O)[C@@H]1CCCN1 [PO, Pro-Hyp] (H-Pro-[Hyp]-OH; N-terminus and C-terminus assumed) | 76.3 | 72.9 | 74.0 | 52.6 | 51.8 | antidepressant effect [4]: exhibited an antidepressant effect
10 | N[C@@H](CCC(=O)O)C(=O)O [Glutamic acid, glutamic acid] | – | – | – | – | – | viability at 10 µM ([3]; Rattus norvegicus, 168 h): 58.1%; viability at 100 µM ([3]; Rattus norvegicus, 168 h): 52.4%; viability at 1000 µM ([3]; Rattus norvegicus, 168 h): 42.4%
11 | CN[C@H](CC(=O)O)C(=O)O [NMDA, N-methyl-D-aspartic acid] | – | – | – | – | – | viability at 100 µM ([3]; Rattus norvegicus, 168 h): 93.4%
12 | N[C@@H](CCC(=O)N[C@@H](CS)C(=O)NCC(=O)O)C(=O)O [Glutathione, glutathione] | – | – | – | – | – | Viability (%) ([3]; 0.01 μM added days 1 and 4): 73.9%; Viability (%) ([3]; 0.1 μM added days 1 and 4): 63.5%; Viability (%) ([3]; 1 μM added days 1 and 4): 63.5%; Viability (%) ([3]; 10 μM added days 1 and 4): 63.6%; Viability (%) ([3]; 100 μM added days 1 and 4): 60.0%; Viability (%) ([3]; 1000 μM added days 1 and 4): 67.1%
13 | NCC(=O)N1CCC[C@H]1C(=O)O [GP] (H-Gly-Pro-OH; N-terminus and C-terminus assumed) | – | – | – | – | – | Viability (%) ([3]; 0.1 μM added days 1 and 4): 48.4%; Viability (%) ([3]; 1 μM added days 1 and 4): 61.2%; Viability (%) ([3]; 10 μM added days 1 and 4): 65.7%; Viability (%) ([3]; 100 μM added days 1 and 4): 63.4%; Viability (%) ([3]; 1000 μM added days 1 and 4): 72.2%
14 | O=C(O)CNC(=O)[C@@H]1C[C@@H](O)CN1 [OG] (H-[Hyp]-Gly-OH) | – | – | – | – | – | Viability (%) ([3]; 0.1 μM added days 1 and 4): 54.5%; Viability (%) ([3]; 1 μM added days 1 and 4): 61.8%; Viability (%) ([3]; 10 μM added days 1 and 4): 77.6%; Viability (%) ([3]; 100 μM added days 1 and 4): 72.8%; Viability (%) ([3]; 1000 μM added days 1 and 4): 71.1%
15 | BDNF: brain-derived neurotrophic factor, Reference Example | – | – | – | – | – | Viability (%) ([3]; 100 ng/mL added days 1 and 4): 76.6%
16 | C[C@H](N)C(=O)N1C[C@H](O)C[C@H]1C(=O)O [AO] (H-Ala-[Hyp]-OH; N-terminus and C-terminus assumed) | 66.1 | 64.7 | 65.9 | 55.1 | 57.0 | –
17 | NCC(=O)N1CCC[C@H]1C(=O)N1C[C@H](O)C[C@H]1C(=O)O [GPO] (H-Gly-Pro-[Hyp]-OH) | – | – | – | – | – | Viability (%) ([3]; 0.1 μM added days 1 and 4): 56.3%; Viability (%) ([3]; 1 μM added days 1 and 4): 58.4%; Viability (%) ([3]; 10 μM added days 1 and 4): 59.0%; Viability (%) ([3]; 100 μM added days 1 and 4): 55.8%; Viability (%) ([3]; 1000 μM added days 1 and 4): 61.5%
18 | N[C@@H](CCC(=O)O)C(=O)N1C[C@H](O)C[C@H]1C(=O)NCC(=O)O [EOG, Glu-Hyp-Gly] (H-Glu-[Hyp]-Gly-OH; N-terminus and C-terminus assumed) | – | 74.4 | 77.7 | 69.9 | – | Viability (%) ([5]; 3 μM): 67.2%; Viability (%) ([5]; 7 μM): 72.7%
